What follows are compounds tested on HCV 1b-Con-1 replicon (assay: HCV 1b-Con-1 replicon assay (luciferase reporter gene, HuH-7 cells)). Conditions: Hepatitis C virus, Huh-7, luciferase reporter gene activity in the replicon, in the presence of 5% FBS.
Type: cell-based, Hepatitis C virus (HCV) genotype 1b-Con1

Compared with `CC[C@H](NC(=O)OC)C(=O)N1CCC[C@H]1C(=O)Nc1ccc(CN(Cc2ccc(NC(=O)[C@@H]3CCCN3C(=O)[C@H](CC)NC(=O)OC)cc2)c2ccc(F)cc2)cc1` [Example 112, dimethyl ([(4-fluorophenyl)imino]bis{methanediylbenzene-4,1-diylcarbamoyl(25)pyrrolidine-2,1-diyl[(2S)-1-oxobutane-1,2-diyl]})biscarbamate], `COC(=O)N[C@@H](CO)C(=O)N1CCC[C@H]1C(=O)Nc1ccc(CN(Cc2ccc(NC(=O)[C@@H]3CCCN3C(=O)[C@H](CO)NC(=O)OC)cc2)c2ccccc2)cc1` [Example 26, dimethyl[(phenylimino)bis{methanediylbenzene-4,1-diylcarbamoyl(2S)pyrrolidine-2,1-diyl[(2S)-3-hydroxy-1-oxopropane-1,2-diyl]}]biscarbamate] is higher in EC50: 1 to 10 nM for the first, 10 to 100 nM for the second. The first is the more potent here.

`C=CC[C@H](NC(=O)OC)C(=O)N1CCC[C@H]1C(=O)Nc1ccc(CN(Cc2ccc(NC(=O)[C@@H]3CCCN3C(=O)[C@H](CC=C)NC(=O)OC)cc2)c2ccccc2)cc1` [Example 37, dimethyl [(phenylimino)bis{methanediylbenzene-4,1-diylcarbamoyl(2S)pyrrolidine-2,1-diyl[(4S)-5-oxopent-1-ene-5,4-diyl]}]biscarbamate] and `COC(=O)N[C@H](C(=O)N1CCC[C@H]1C(=O)Nc1ccc(CN(Cc2ccc(NC(=O)[C@@H]3CCCN3C(=O)[C@@H](NC(=O)OC)[C@@H](C)O)cc2)c2ccccc2)cc1)[C@@H](C)O` [Example 25, dimethyl[(phenylimino)bis{methanediylbenzene-4,1-diylcarbamoyl(2S)pyrrolidine-2,1-diyl[(2S,3R)-3-hydroxy-1-oxobutane-1,2-diyl]}]biscarbamate] fall in the same range of EC50: 1 to 10 nM for the first, 1 to 10 nM for the second.

`COC(=O)N[C@H](C(=O)N1CCC[C@H]1C(=O)Nc1ccc(CN(Cc2ccc(NC(=O)[C@@H]3CCCN3C(=O)[C@@H](c3ccccc3)N3CCCCC3)cc2)c2ccc(F)cc2)cc1)[C@H]1CCOC1` [Example 114, methyl {(1S)-2-{(2S)-2-[(4-{[(4-fluorophenyl){4-[({(2S)-1-[(2R)-2-phenyl-2-piperidin-1-ylacetyl]pyrrolidin-2-yl}carbonyl)amino]benzyl}amino]methyl}phenyl)carbamoyl]pyrrolidin-1-yl}-2-oxo-1-[(3R)-tetrahydrofuran-3-yl]ethyl}carbamate] and `COC(=O)N[C@@H](C(=O)N1CCC[C@H]1C(=O)Nc1ccc(CN(Cc2ccc(NC(=O)[C@@H]3CCCN3C(=O)[C@@H]3CCCO3)cc2)c2ccccc2)cc1)c1ccccc1` [Example 76, methyl {(1R)-2-oxo-1-phenyl-2-[(2S)-2-({4-[(phenyl{4-[({(2S)-1-[(2S)-tetrahydrofuran-2-ylcarbonyl]pyrrolidin-2-yl}carbonyl)amino]benzyl}amino)methyl]phenyl}carbamoyl)pyrrolidin-1-yl]ethyl}carbamate] cannot be ordered by EC50: less than 1 nM for the first, less than 1 nM for the second.

`CN(C)[C@@H](C(=O)N1CCC[C@H]1c1nc2cc(CN(Cc3ccc4[nH]c([C@@H]5CCCN5C(=O)[C@@H](c5ccccc5)N(C)C)nc4c3)c3ccccc3)ccc2[nH]1)c1ccccc1` [Example 18, (2R,2′R)-1,1′-((2S,2′S)-2,2′-(5,5′-(phenylazanediyl)bis(methylene)bis(1H-benzo[d]imidazole-5,2-diyl))bis(pyrrolidine-2,1-diyl))bis(2-(dimethylamino)-2-phenylethanone)] and `CCN(CC)[C@@H](C(=O)N1CCC[C@H]1c1nc2cc(CN(Cc3ccc4[nH]c([C@@H]5CCCN5C(=O)[C@@H](c5ccccc5)N(CC)CC)nc4c3)c3ccccc3)ccc2[nH]1)c1ccccc1` [Example 65, N,N-bis[(2-{(2S)-1-[(2R)-2-(diethylamino)-2-phenylacetyl]pyrrolidin-2-yl}-1H-benzimidazol-5-yl)methyl]aniline] cannot be ordered by EC50: less than 1 nM for the first, less than 1 nM for the second.

First: COC(=O)N[C@H](C(=O)N1CCC[C@H]1C(=O)Nc1ccc(CN(Cc2ccc3[nH]c([C@@H]4CCCN4C(=O)[C@@H](NC(=O)OC)C(C)(C)O)nc3c2)c2ccc(F)cc2)cc1)C(C)(C)O [Example 99, 3-hydroxy-N-(methoxycarbonyl)-L-valyl-N-[4-({(4-fluorophenyl)[(2-{(2S)-1-[3-hydroxy-N-(methoxycarbonyl)-L-valyl]pyrrolidin-2-yl}-1H-benzimidazol-5-yl)methyl]amino}methyl)phenyl]-L-prolinamide]
Second: COC(=O)N[C@H](C(=O)N1CC[C@H]1C(=O)Nc1ccc(CN(Cc2ccc(NC(=O)[C@@H]3CCN3C(=O)[C@@H](NC(=O)OC)C(C)(C)C)cc2)c2ccc(F)cc2)cc1)C(C)(C)C [Example 100, methyl [(1S)-1-{[(2S)-2-{[4-({(4-fluorophenyl)[4-({[(2S)-1-{(2S)-2-[(methoxycarbonyl)amino]-3,3-dimethylbutanoyl}azetidin-2-yl]carbonyl}amino)benzyl]amino}methyl)phenyl]carbamoyl}azetidin-1-yl]carbonyl}-2,2-dimethylpropyl]carbamate]
The EC50 of the first is lower: less than 1 nM for the first, 1 to 10 nM for the second.

`CCN(CC)[C@@H](C(=O)N1CCC[C@H]1C(=O)Nc1ccc(CN(Cc2ccc(NC(=O)[C@@H]3CCCN3C(=O)[C@@H](NC(=O)OC)C(C)(C)C)cc2)c2ccccc2)cc1)c1ccccc1` [Example 12, Methyl (S)-1-((S)-2-(4-(((4-((S)-1-((R)-2-(diethylamino)-2-phenylacetyl)pyrrolidine-2-carboxamido)benzyl)(phenyl)amino)methyl)phenylcarbamoyl)pyrrolidin-1-yl)-3,3-dimethyl-1-oxobutan-2-ylcarbamate] and `COC(=O)N[C@H](C(=O)N1CCC[C@H]1C(=O)Nc1ccc(CN(Cc2ccc(NC(=O)[C@@H]3CCCN3C(=O)[C@H](NC(=O)[C@H]3CCCO3)c3ccccc3)cc2)c2ccccc2)cc1)C(C)(C)C` [Example 88, N-(methoxycarbonyl)-3-methyl-L-valyl-N-[4-({phenyl[4-({1-[(2R)-2-phenyl-2-{[(2R)-tetrahydrofuran-2-ylcarbonyl]amino}acetyl]-L-prolyl}amino)benzyl]amino}methyl)phenyl]-L-prolinamide] cannot be ordered by EC50: less than 1 nM for the first, less than 1 nM for the second.

`CCN(CC)[C@@H](C(=O)N1CCC[C@H]1C(=O)Nc1ccc(CN(Cc2ccc(NC(=O)[C@@H]3CCCN3C(=O)[C@@H](c3ccccc3)N(CC)CC)cc2)c2ccc(F)c(F)c2)cc1)c1ccccc1` [Example 89, (2S,2′S)-N,N′-{[(3,4-difluorophenyl)imino]bis(methanediylbenzene-4,1-diyl)}bis{1-[(2R)-2-(diethylamino)-2-phenylacetyl]pyrrolidine-2-carboxamide}] and `O=C(Nc1ccc(CN(Cc2ccc(NC(=O)[C@@H]3CCCN3C(=O)[C@@H](c3ccccc3)N3CCCCC3)cc2)c2ccc(F)c(F)c2)cc1)[C@@H]1CCCN1C(=O)[C@@H](c1ccccc1)N1CCCCC1` [Example 137, (2S,2′S)-N,N′-{[(3,4-difluorophenyl)imino]bis(methanediylbenzene-4,1-diyl)}bis{1-[(2R)-2-phenyl-2-piperidin-1-ylacetyl]pyrrolidine-2-carboxamide}] cannot be ordered by EC50: less than 1 nM for the first, less than 1 nM for the second.

`COC(=O)N[C@H](C(=O)N1CCC[C@H]1C(=O)Nc1ccc(CN(Cc2ccc(NC(=O)[C@@H]3CCCN3C(=O)[C@@H](NC(=O)OC)C(C)C)cc2)C2CCCC2)cc1)C(C)C` [Example 27, dimethyl[(cyclopentylimino)bis{methanediylbenzene-4,1-diylcarbamoyl(2S)pyrrolidine-2,1-diyl[(2S)-3-methyl-1-oxobutane-1,2-diyl]}]biscarbamate] and `COC(=O)N[C@H](C(=O)N1CCC[C@H]1C(=O)Nc1ccc(CN(Cc2ccc(NC(=O)[C@@H]3CCCN3C(=O)[C@@H](NC(=O)OC)C(C)(C)C)cc2)[C@@H]2CCOC2)cc1)C(C)(C)C` [Example 44, dimethyl ([(3R)-tetrahydrofuran-3-ylimino]bis{methanediylbenzene-4,1-diylcarbamoyl(2S)pyrrolidine-2,1-diyl[(2S)-3,3-dimethyl-1-oxobutane-1,2-diyl]})biscarbamate] fall in the same range of EC50: 10 to 100 nM for the first, 10 to 100 nM for the second.

Compared with `COC(=O)N[C@H](C(=O)N1C[C@@H](F)C[C@H]1C(=O)Nc1ccc(CN(Cc2ccc(NC(=O)[C@@H]3C[C@H](F)CN3C(=O)[C@@H](NC(=O)OC)C(C)(C)C)cc2)c2ccccc2)cc1)C(C)(C)C` [Example 94], `COC(=O)N[C@H](C(=O)N1CCC[C@H]1C(=O)Nc1cccc(CN(Cc2cccc(NC(=O)[C@@H]3CCCN3C(=O)[C@@H](NC(=O)OC)C(C)(C)C)c2)c2ccc(F)cc2)c1)C(C)(C)C` [Example 143, dimethyl ([(4-fluorophenyl)imino]bis{methanediylbenzene-3,1-diylcarbamoyl(2S)pyrrolidine-2,1-diyl[(2S)-3,3-dimethyl-1-oxobutane-1,2-diyl]})biscarbamate] is lower in EC50: 1 to 10 nM for the first, less than 1 nM for the second.

`COC(=O)N1CCOC[C@H]1C(=O)N1CCC[C@H]1C(=O)Nc1ccc(CN(Cc2ccc(NC(=O)[C@@H]3CCCN3C(=O)[C@@H]3COCCN3C(=O)OC)cc2)c2ccc(F)cc2)cc1` [Example 144, dimethyl (3S,3′S)-3,3′-{[(4-fluorophenyl)imino]bis[methanediylbenzene-4,1-diylcarbamoyl(2S)pyrrolidine-2,1-diylcarbonyl]}dimorpholine-4-carboxylate] and `COC(=O)N[C@H](C(=O)N1CCC[C@H]1C(=O)Nc1cc(CN(Cc2ccc(OC)c(NC(=O)[C@@H]3CCCN3C(=O)[C@@H](NC(=O)OC)C(C)(C)C)c2)c2ccc(F)cc2)ccc1OC)C(C)(C)C` [Example 147, dimethyl ([(4-fluorophenyl)imino]bis{methanediyl(6-methoxybenzene-3,1-diyl)carbamoyl(2S)pyrrolidine-2,1-diyl[(2S)-3,3-dimethyl-1-oxobutane-1,2-diyl]})biscarbamate] fall in the same range of EC50: 100 to 250 nM for the first, 100 to 250 nM for the second.

`O=C(Nc1ccc(CN(Cc2ccc(NC(=O)[C@@H]3C[C@@H](F)CN3C(=O)[C@@H](c3ccccc3)N3CCCCC3)cc2)c2ccc(F)cc2)cc1)[C@@H]1C[C@@H](F)CN1C(=O)[C@@H](c1ccccc1)N1CCCCC1` [Example 102, (2S,4R,2′S,4′R)-N,N′-{[(4-fluorophenyl)imino]bis(methanediylbenzene-4,1-diyl)}bis{4-fluoro-1-[(2R)-2-phenyl-2-piperidin-1-ylacetyl]pyrrolidine-2-carboxamide}] showed an EC50 of less than 1 nM.

From patent US9278922B2 (ABBVIE INC., priority 2009, dated 2016)
